Data: patent publication US4432906A, “Inhibitors of SRS-synthesis” (Hoffmann-La Roche Inc., priority 1981, dated 1984)

System: SRS-A synthesis in rat peritoneal cells
Assay: Inhibition of the in vitro synthesis of SRS-A in rat peritoneal cells (ionophore A23187 challenge; SRS-A quantitated by guinea pig ileum bioassay)
Assay type: cell-based, rat (male Sprague-Dawley)
Details: for IC50: concentration of test drug which inhibits the synthesis of SRS-A by 50%, from plot of mean percent inhibition versus drug concentration; for inhibition at 10 µM: inhibition of SRS-A synthesis, 10 μM test drug, 10 min preincubation at 37° C., challenge with 5×10^-7 M ionophore A23187, mean percent inhibition
Source text: Inhibition of the In Vitro Synthesis of SRS-A in Rat Peritoneal Cells
To study the effect of drugs on SRS-A synthesis in rat peritoneal cells, these cells (including mast cells, monocytes, eosinophils and neutrophils)were isolated from male Sprague-Dawley rats (Charles River Laboratories) weighing 180-220 g by the lavage procedure described by Herzig, D. G. and Dusner, E. J. Journal of Pharmacology and Experimental Therapeutics, 194, 457-460 (1975) with the exception that Hanks balanced salt solution used in these experiments was adjusted to pH 6.9 with 5% (V/V) of 0.1 M aqueous phosphate buffer and contained 50 mg/ml sodium heparin. After removal from the peritoneal cavity of rats, the cells were subsequently isolated by centrifugation at 400×gravity for 10 minutes at 4° C. and resuspended to a concentration of about 2,000,000 cells per ml in Hanks buffer.
Samples for evaluation were prepared by adding various concentrations of test drugs to 2 ml aliquots of resuspended cells in Hanks buffer. The 2 ml samples used for control contained 2 ml aliquots of resuspended cells in Hanks buffer without drugs. All of the above samples (2 ml final volume) were preincubated at 37° C. for 10 minutes in the presence of varying concentrations of test drug prior to challenge with 5×10^-7 M ionophore A23187. This ionophore is disclosed in Burka and Flower, Br. J. Pharmacology 65: 35-41 (1979). Antibiotic A 23187 was used as a probe for the study of calcium and function in biological systems. After ionophore challenge, SRS-A was synthesized in the samples by the cells for 10 minutes (at 37° C.) after which this synthesis was terminated by placing the samples in a boiling water bath for 10 minutes followed by centrifugation at 2,000×g (10 minutes) at 4° C. to remove coagulated protein and cellular debris. The SRS-A present in the resulting supernatants was quantitated by a bioassay using a guinea pig ileum as described in Orange, and Austen, Adv. Immunol, 10:105-144 (1969). For this bioassay, a 1.5 cm segment of ileum was removed from animals weighing 300 to 400 g and resuspended in an organ bath containing 10 ml of Tyrodes solution with 10^-6 M atropine sulfate and 10^-6 M pyrilamine maleate. The bath was maintained at 37° C. and aerated with a mixture of 95% O2 and 5% CO2. The concentration of SRS-A in the experimental samples was determined by a comparison of isotonic contraction responses elicited by the samples with those obtained with varying amounts of an SRS-A standard procedures of Orange, R. R. and Austen, K. F. Adv. Immunol. 10:105-144 (1969) against histamine (1 unit of SRS-A being that amount which gives a contractile response similar to that of […]). […]
The mean percent inhibition [formula] at each concentration of the various test drugs was calculated. […]

For `CCCCCCCC/C=C\C(C)(C)/C=C\C/C=C\CCCC(=O)O` [(all Z)-10,10-dimethyl-5,8,11-eicosatrienoic acid], which IC50 is on record?
The IC50 was less than 10 µM.

What about the inhibition at 10 µM of the same compound?
The inhibition at 10 µM was 100%.

`CCCCC/C=C\C/C=C\C(C)(C)/C=C\C/C=C\CCCC(=O)O` [(all Z)-10,10-dimethyleicosa-5,8,11,14-tetraenoic acid] was tested. Which IC50 did it give?
The IC50 was 1 to 3 µM.

And the inhibition at 10 µM?
Its inhibition at 10 µM is 99 ± 1%.
